# From US10500166B2, “Methods for the treatment of erectile dysfunction using fispemifene” (QUATRX PHARMACEUTICALS, priority 2007, dated 2019)
# How the values were obtained:
# [1] = system: LH (luteinizing hormone); experiment: Example 3 study in hypogonadal men: serum LH (ITT); assay type: in vivo, human; conditions: for LH, Max / LH, Mean ± SD / LH, Median / LH, Min: Baseline (Visit 2)
# Method: A randomized, double-blind, placebo controlled, parallel-group study of once-daily doses of fispemifene (100, 200, and 300 mg/day) given for 4 weeks was conducted in a population of hypogonadal men. Subjects were required to meet all of the following inclusion criteria at screening and prior to randomization to be eligible for the study:
# There were 77 subjects total. The number of subjects randomized to the 100 mg fispemifene, 200 mg fispemifene, 300 mg fispemifene, and placebo arms were 21, 21, 19, and 16, respectively.
# Subjects were randomly assigned to one of four treatment groups in a 1:1:1:1 ratio: • Treatment A (100 mg): fispemifene 100 mg+placebo+placebo; • Treatment B (200 mg): fispemifene 100 mg+fispemifene 100 mg+placebo; • Treatment C (300 mg): fispemifene 100 mg+fispemifene 100 mg+fispemifene 100 mg; and • Treatment D (Placebo): placebo+placebo+placebo.
# Subjects took one dose (three capsules) of study medication once a day at home for 4 weeks. Capsules were to be taken in the morning immediately after breakfast, with the exception of the morning of the Week 4 visit. Capsules were not to be taken on the morning of the Week 4 visit because trough plasma levels of fispemifene were determined by a blood sample taken at this visit. Each subject was randomly assigned to treatment with one of the 3 different dose regimens of fispemifene or placebo vehicle. Each subject received a 4 week supply of study drug.
# Blood samples were taken from the subjects within 1 week prior to dosing with study drug to establish baseline values; after 2 and 4 weeks of randomization; and 2 weeks after the last dose of study drug. Serum was prepared from those samples and used to determine the mean % change from baseline in total testosterone, free testosterone, SHBG (sex hormone-binding globulin), DHT (dihydrotestosterone), E2 (estradiol), LH (luteinizing hormone), FSH (follicle stimulating hormone), and inhibin B.
# 3. Percent change from baseline in SHBG, DHT, E2, LH, FSH, inhibin B, and testosterone/E2 ratio at Weeks 2, 4, and 6.
# [2] = system: estradiol; experiment: Phase I repeated dose study 101-50202: serum estradiol; assay type: in vivo, human
# From the text: Fispemifene has been studied in two phase I studies in humans—in a single dose and a repeated dose study. Effect of fispemifene on hormone levels was one main focus of the repeated dose study. The phase I repeated dose study (number 101-50202) was a randomized, double-blind, placebo-controlled 28-day dose-escalation study performed in 31 healthy, elderly men, aged 50-68 years. The main objective of the study was to investigate the tolerability, safety and pharmacokinetics of fispemifene after repeated oral doses, but the study focused also on the effects of fispemifene on serum free and total testosterone, estradiol, and other relevant hormones. The fispemifene doses 10, 30, 100 and 300 mg per day and placebo were administered once every morning as capsules containing 10 mg or 100 mg of fispemifene, or placebo.
# The variables for safety and tolerability were adverse events, vital signs, 12-lead ECG, clinical laboratory evaluations, physical examination, ultrasound examinations (mammary glands) and inhibin B. For pharmacokinetics, the concentrations of fispemifene and its metabolite(s) were to be evaluated. For pharmacodynamics, serum concentrations of FSH, LH, estradiol, testosterone, SHBG, prolactin, aldosterone, cortisol and TSH before and during treatment were measured and compared with the concentrations in the placebo-group.
# [3] = 100 mg/day, to Week 6 (2 weeks after discontinuation)
# [4] = 200 mg/day, to Week 6 (2 weeks after discontinuation)
# [5] = 300 mg/day, to Week 6 (2 weeks after discontinuation)
smiles,measurement,setting,value
"OCCOCCOc1ccc(/C(=C(/CCCl)c2ccccc2)c2ccccc2)cc1 [Fispemifene, (Z)-2-{2-[4-(4-Chloro-1,2-diphenylbut-1-enyl)phenoxy]ethoxy}ethanol]","LH, Max",[1]; 100 mg/day,13.50 IU/L
same,"LH, Mean ± SD",[1]; 100 mg/day,4.43 ± 2.438 IU/L
same,"LH, Median",[1]; 100 mg/day,4.10 IU/L
same,"LH, Min",[1]; 100 mg/day,1.50 IU/L
same,"LH, % Change from Baseline, Max","[1]; 100 mg/day, to Week 2",141%
same,"LH, % Change from Baseline, Mean ± SD","[1]; 100 mg/day, to Week 2",0.39 ± 0.00496%
same,"LH, % Change from Baseline, Median","[1]; 100 mg/day, to Week 2",29%
same,"LH, % Change from Baseline, Max","[1]; 100 mg/day, to Week 4",203%
same,"LH, % Change from Baseline, Median","[1]; 100 mg/day, to Week 4",49%
same,"LH, % Change from Baseline, Max",[1]; [3],100%
same,"LH, % Change from Baseline, Median",[1]; [3],0%
same,"LH, Max",[1]; 200 mg/day,11.60 IU/L
same,"LH, Mean ± SD",[1]; 200 mg/day,4.25 ± 2.028 IU/L
same,"LH, Median",[1]; 200 mg/day,3.60 IU/L
same,"LH, Min",[1]; 200 mg/day,1.00 IU/L
same,"LH, % Change from Baseline, Max","[1]; 200 mg/day, to Week 2",123%
same,"LH, % Change from Baseline, Median","[1]; 200 mg/day, to Week 2",54%
same,"LH, % Change from Baseline, Max","[1]; 200 mg/day, to Week 4",137%
same,"LH, % Change from Baseline, Median","[1]; 200 mg/day, to Week 4",52%
same,"LH, % Change from Baseline, Max",[1]; [4],80%
same,"LH, % Change from Baseline, Median",[1]; [4],19%
same,"LH, Max",[1]; 300 mg/day,8.00 IU/L
same,"LH, Mean ± SD",[1]; 300 mg/day,3.62 ± 1.506 IU/L
same,"LH, Median",[1]; 300 mg/day,3.20 IU/L
same,"LH, Min",[1]; 300 mg/day,1.90 IU/L
same,"LH, % Change from Baseline, Max","[1]; 300 mg/day, to Week 2",134%
same,"LH, % Change from Baseline, Median","[1]; 300 mg/day, to Week 2",63%
same,"LH, % Change from Baseline, Max","[1]; 300 mg/day, to Week 4",178%
same,"LH, % Change from Baseline, Median","[1]; 300 mg/day, to Week 4",42%
same,"LH, % Change from Baseline, Max",[1]; [5],84%
same,"LH, % Change from Baseline, Median",[1]; [5],19%
same,effect on serum LH levels,"[1]; hypogonadal men, 100-300 mg/day for 4 weeks",increased
same,"Serum estradiol, Mean","[2]; 10 mg/day, Baseline",106.2 pmol/L
same,"Serum estradiol, Mean","[2]; 10 mg/day, Day 8",94.7 pmol/L
same,"Serum estradiol, Mean","[2]; 10 mg/day, Day 15",81.7 pmol/L
same,"Serum estradiol, Mean","[2]; 10 mg/day, Day 22",116.6 pmol/L
same,"Serum estradiol, Mean","[2]; 10 mg/day, Day 28",75.0 pmol/L
same,"Serum estradiol, Mean","[2]; 30 mg/day, Baseline",97.8 pmol/L
same,"Serum estradiol, Mean","[2]; 30 mg/day, Day 8",105.6 pmol/L
same,"Serum estradiol, Mean","[2]; 30 mg/day, Day 15",102.4 pmol/L
same,"Serum estradiol, Mean","[2]; 30 mg/day, Day 22",99.6 pmol/L
same,"Serum estradiol, Mean","[2]; 30 mg/day, Day 28",87.0 pmol/L
same,"Serum estradiol, Mean","[2]; 100 mg/day, Baseline",84.3 pmol/L
same,"Serum estradiol, Mean","[2]; 100 mg/day, Day 8",108.3 pmol/L
same,"Serum estradiol, Mean","[2]; 100 mg/day, Day 15",111.5 pmol/L
same,"Serum estradiol, Mean","[2]; 100 mg/day, Day 22",106.3 pmol/L
same,"Serum estradiol, Mean","[2]; 100 mg/day, Day 28",94.5 pmol/L
same,"Serum estradiol, Mean","[2]; 300 mg/day, Baseline",102.5 pmol/L
same,"Serum estradiol, Mean","[2]; 300 mg/day, Day 8",104.0 pmol/L
same,"Serum estradiol, Mean","[2]; 300 mg/day, Day 15",97.8 pmol/L
same,"Serum estradiol, Mean","[2]; 300 mg/day, Day 22",95.5 pmol/L
same,"Serum estradiol, Mean","[2]; 300 mg/day, Day 28",89.7 pmol/L
